Assay results reported in patent US20180049425A1, “Bait Composition” (priority 2016, published 2018).

Columns and labels:
[1] = system: feral hogs; test: studies using the instant feral hog control system with low dose warfarin bait; assay type: in vivo, Sus scrofa
From the text: As to particular studies, death of the feral hogs (2) occurred within not greater than about five days following exposure to the bait (3).

[2] = system: feral pigs; settings: bait containing 0.09% warfarin by weight of the bait; Saunders et al.; cited from earlier work
[3] = system: feral pigs; settings: bait containing 0.13% warfarin by weight of the bait; McIlroy et al.; cited from earlier work
[4] = bait with about 0.005% warfarin by weight of the bait
[5] = bait with about 0.01% warfarin by weight of the bait

In the case of `CC(=O)CC(c1ccccc1)c1c(O)c2ccccc2oc1=O` (stereo not drawn) [warfarin], the “death of the feral hogs following exposure to the bait” value [1, 4] is reported as “ten”, the mortality rate [1, 4] is reported as 100% and the “death of the feral hogs following exposure to the bait, particular studies” value [1, 4] is reported as “five”. The “death of the feral hogs following exposure to the bait” value [1, 5] was “ten”, the mortality rate [1, 5] was 100% and the “death of the feral hogs following exposure to the bait, particular studies” value [1, 5] was “five”. For the same compound, the “first death recorded after bait distribution” value [2] was “six”, the feral pigs dying [3] was 30 of 32 and the “time of dying after bait distribution (mean±s.e.)” value [3] was 9.7 ± 0.4 days.
